The results in this text go back to patent US7612049B2, “Method of inhibition the growth of algae” (priority 2007, dated 2009).

Holding throughout (assay type): cell-based
The test system of assay [1] is fishpond water algae, especially abundant in Chlorophyta. Kind of assay: Growth inhibition of algae in fishpond water, chlorophyll-a content by spectrometry. Conditions: 100 ppm glucosamine. The protocol:
In order to test if glucosamine inhibited the growth of algae or not, in the following embodiment, glucosamine was added to samples and then observed. Moreover, since chlorophyll-a content of algae is widely used as an indicator of the quality of freshwater bodies and the abundance of algae, the chlorophyll-a content in the sample was detected by spectrometry.
First, two 20 ml portions of water were obtained from a fishpond which contains a varieties of algae and is especially abundant in Chlorophyta. Both portions of water were labeled as control and sample I respectively. Next, 100 ppm glucosamine was added in sample I, and then the control and sample I were cultured for 28 days with Bold's medium.
The solution of the control and sample I were centrifuged at 10000 rpm at 20° C. for 3 hours, and then the supernatant were poured out. Next, two 10 ml portions of 95% (v/v) ethanol were added to sample I and the control and mixed with the residues. […] Then, the absorbance at 665 nm of the control and sample I were detected. Finally, according to the “Standard Methods for the Examination Chlorophyll-a in Water-Ethanol Extraction” issued by National Indian Education Association, Taiwan (NIEA E508.00B), the absorbance at 665 nm of the control and sample I were calibrated and the concentration of Chlorophyll-a content can be calculated by the absorbance measure.

A further assay has as its system Microcystis aeruginosa. Kind of assay: Growth inhibition of Cyanobacteria, chlorophyll-a content. The protocol: (§1) The solution of the control and sample I were centrifuged at 10000 rpm at 20° C. for 3 hours, and then the supernatant were poured out. Next, two 10 ml portions of 95% (v/v) ethanol were added to sample I and the control and mixed with the residues. Next, the solution of sample I and the control were water-bathed in 60° C. water for 30 mins to extract Chlorophyll-a. When being bathed in the water, the solution of the control and sample I were shaken every ten minutes. After that, the solutions were centrifuged at 5000 G at 20° C. for 15 minutes and the supernatants were kept. Then, the absorbance at 665 nm of the control and sample I were detected. Finally, according to the “Standard Methods for the Examination Chlorophyll-a in Water-Ethanol Extraction” issued by National Indian Education Association, Taiwan (NIEA E508.00B), the absorbance at 665 nm of the control and sample I were calibrated and the concentration of Chlorophyll-a content can be calculated by the absorbance measure.
(§2) To verify whether Cyanobacteria can be inhibited by glucosamine or not, in the following embodiment, two kinds of toxic Cyanobacteria, Microcystis aeruginosa and […]. The detailed procedures are described below.
(§3) First, four 50 ml portions of water with Microcystis aeruginosa were obtained and labeled as control and sample II, sample III, and sample IV respectively. The weight concentration of Microcystis aeruginosa cell in these four samples 883 μg/L (ppb). Next, different amount of glucosamine was added into the three samples so that the concentrations of glucosamine in samples II, III, and IV were 10 ppm, 20 ppm, and 50 ppm, respectively. After that, the control and sample II, III, and IV were cultured for 14 days with Bold's medium, and the Chlorophyll-a content of each sample were detected every 7 days. The procedures of detecting Chlorophyll-a content was the same as mentioned in embodiment I and the whole process was repeated for testing Microcystis flos-aquae.

The next assay deals with Microcystis flos-aquae. The description is as above. The protocol: as §1, §2, §3
The mark [2] stands for this setting: Microcystis aeruginosa, 336 h, read-out: Inhibition efficiency (after 14 days).

One may read the inhibition as the percentage by which the read-out fell short of the control.

On to `N[C@H]1C(O)O[C@H](CO)[C@@H](O)[C@@H]1O` (stereo partly drawn) [glucosamine], for which the “algae bloom observed after culture” value in assay [1] (28 days, Bold's medium) is “the algae in the control bloomed, but not sample I”. The “concentration of Chlorophyll-a content” value in assay [1] (cultured 28 days with Bold's medium, control 652 ppb) was 74 ppb. The “minimum effective amount of glucosamine” value in the assay with Microcystis aeruginosa (10 ppm divided by 0.883 mg (weight concentration of Cyanobacteria 0.883 mg/L)) is recorded as “at least 10 ppm/mg algae”. Also, the Chlorophyll-a content in the assay on Microcystis aeruginosa (10 ppm glucosamine (Sample II), 7th day, control 270 ppb) turned out to be 80 ppb; in the assay with Microcystis aeruginosa (10 ppm glucosamine (Sample II), 14th day, control 2657 ppb) it was 1922 ppb; with Microcystis aeruginosa (20 ppm glucosamine (Sample III), 7th day, control 270 ppb) it was 65 ppb; in the assay on Microcystis aeruginosa (20 ppm glucosamine (Sample III), 14th day, control 2657 ppb), 1004 ppb; with Microcystis aeruginosa (50 ppm glucosamine (Sample IV), 7th day, control 270 ppb), 41 ppb; in the assay on Microcystis aeruginosa (50 ppm glucosamine (Sample IV), 14th day, control 2657 ppb), 72.3 ppb. For the same compound, the Chlorophyll-a content stood at 0 ppb in the assay on Microcystis flos-aquae (10 ppm glucosamine (Sample V), 7th day, control 178 ppb); 225 ppb in the assay on Microcystis flos-aquae (10 ppm glucosamine (Sample V), 14th day, control 438 ppb); 3 ppb with Microcystis flos-aquae (20 ppm glucosamine (Sample VI), 7th day, control 178 ppb); 142 ppb with Microcystis flos-aquae (20 ppm glucosamine (Sample VI), 14th day, control 438 ppb); 15 ppb in the assay with Microcystis flos-aquae (50 ppm glucosamine (Sample VII), 7th day, control 178 ppb); 92 ppb in the assay with Microcystis flos-aquae (50 ppm glucosamine (Sample VII), 14th day, control 438 ppb). Also, the inhibition at 10 ppm with Microcystis aeruginosa (setting [2]) worked out at 27.6%; with Microcystis flos-aquae (Microcystis flos-aquae, 336 h, 10 ppm glucosamine (Sample V), read-out: Inhibition efficiency (after 14 days)), 48.6%. Also, the inhibition at 20 ppm with Microcystis aeruginosa (setting [2]) stood at 62.2%; with Microcystis flos-aquae (Microcystis flos-aquae, 336 h, 20 ppm glucosamine (Sample VI), read-out: Inhibition efficiency (after 14 days)), 67.5%. For the same compound, the inhibition at 50 ppm in the assay on Microcystis aeruginosa (setting [2]) amounted to 97.2%; in the assay with Microcystis flos-aquae (Microcystis flos-aquae, 336 h, 50 ppm glucosamine (Sample VII), read-out: Inhibition efficiency (after 14 days)) it was 78.9%.
